Legend:
[1] = tested on: totality of B. longum + B. bifidum + B. animalis lactis + B. angulatum; assay: Healthy adult study, ITS profiling of the Bifidobacterium community in faecal samples; format: in vivo, human; conditions: healthy adults
Method: (§1) A total of 100 male and female healthy adults are recruited to participate in the study. After a screening visit and run-in period of 1-2 weeks, the participants are selected and randomized into ten groups, each of 10 subjects. One group is administered daily a placebo product containing 2 grams of glucose. The remaining 9 groups are administered daily a treatment product containing one of the following: a) 20 g of 2′-FL, b) 10 g of 2′-FL, c) 5 g of 2′-FL, d) 20 g of LNnT, e) 10 g of LNnT, f) 5 g of LNnT, g) 20 g of a 2:1 mixture of 2′-FL and LNnT, h) 10 g of a 2:1 mixture of 2′-FL and LNnT, and i) 5 g of a 2:1 mixture of 2′-FL and LNnT for 2 weeks. The placebo and treatment products are in powder form in a unit dosage container.
(§2) The study runs for 2 weeks with the participants consuming either a placebo or a treatment product daily. Participants are instructed to consume the products in the morning with breakfast. Compliance is monitored through the interactive internet enabled system.
(§3) To assess the Bifidobacterium community, ITS profiling of DNA samples is performed according to Milani et al, FEMS Microbiol. Ecol. 90, 493 (2014). […] Both B. adolescentis and B. pseudocatenulatum are members of the B. adolescentis phylogenetic group. It can be seen that oral ingestion of the HMOs clearly increases the abundance of B. adolescentis and/or B. pseudocatenulatum in the microbiota of healthy adults, as well as its relative abundance compared to the totality of other Bifidobacterium species.

[2] = tested on: B. adolescentis phylogenetic group; assay: as above; format: in vivo, human; conditions: healthy adults
Method: as §1, §2, §3

Row | Compound | percentage increase of totality of B. longum + B. bifidum + B. animalis lactis + B. angulatum in human faeces after consumption of HMOs ([1]; 5 g daily for 2 weeks) [%] | percentage increase of totality of B. longum + B. bifidum + B. animalis lactis + B. angulatum in human faeces after consumption of HMOs ([1]; 10 g daily for 2 weeks) [%] | percentage increase of totality of B. longum + B. bifidum + B. animalis lactis + B. angulatum in human faeces after consumption of HMOs ([1]; 20 g daily for 2 weeks) [%] | percentage increase of B. adolescentis phylogenetic group in human faeces after consumption of HMOs ([2]; 5 g daily for 2 weeks) [%] | percentage increase of B. adolescentis phylogenetic group in human faeces after consumption of HMOs ([2]; 10 g daily for 2 weeks) [%] | percentage increase of B. adolescentis phylogenetic group in human faeces after consumption of HMOs ([2]; 20 g daily for 2 weeks) [%]
1 | 2′-fucosyllactose [2′-FL] | 0 | 20 | 15 | 50 | 325 | 120
2 | CC(=O)N[C@H]1[C@H](O[C@H]2[C@@H](O)[C@@H](CO)O[C@@H](O[C@H]3[C@H](O)[C@@H](O)C(O)O[C@@H]3CO)[C@@H]2O)O[C@H](CO)[C@@H](O[C@@H]2O[C@H](CO)[C@H](O)[C@H](O)[C@H]2O)[C@@H]1O (mixture of isomers) [LNnT, lacto-N-neotetraose] | 50 | 130 | 105 | 90 | 195 | 185

From patent publication US11998558B2, “Synthetic composition for treating antibiotic associated complications” (GLYCOM A/S, priority 2015, dated 2024)
